The values that follow come from US8124629B2, “Naphthylacetic acids” (Hoffmann-La Roche Inc., priority 2008, dated 2012).

This assay addresses T1, human CRTH2 (Homo sapiens, UniProt Q9Y5Y4).
T1 sequence (Q9Y5Y4 1-395): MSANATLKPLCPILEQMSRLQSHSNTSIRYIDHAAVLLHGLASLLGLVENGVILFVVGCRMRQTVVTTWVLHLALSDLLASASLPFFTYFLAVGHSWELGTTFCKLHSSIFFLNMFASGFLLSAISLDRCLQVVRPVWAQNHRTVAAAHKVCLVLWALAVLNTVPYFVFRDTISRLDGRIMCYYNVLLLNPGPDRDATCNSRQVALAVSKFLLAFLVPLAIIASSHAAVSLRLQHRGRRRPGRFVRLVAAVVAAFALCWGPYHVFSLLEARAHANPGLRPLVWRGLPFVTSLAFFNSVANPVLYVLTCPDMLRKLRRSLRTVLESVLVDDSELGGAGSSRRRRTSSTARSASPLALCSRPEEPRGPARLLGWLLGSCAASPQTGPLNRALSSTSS
Nature of the assay: Human CRTH2 Receptor Binding Assay (whole cell, [3H]ramatroban). On the set-up: expressed in transfected cells; host or cells: CHO-K1. To be noted: CHO-K1 cells expressing human CRTH2 and G-alpha16; 20 nM [3H]ramatroban; 1 hour, room temperature. The source says: A whole cell receptor binding assay using [^3H]ramatroban as the competing radioactive ligand was employed to evaluate the compound binding activity to human CRTH2. The radioactive ligand [^3H]ramatroban was synthesized according to Sugimoto et. al. (Eur. J. Pharmacol. 524, 30-37, 2005) to a specific activity of 42 Ci/mmol.
A cell line stably expressing human CRTH2 was established by transfecting CHO-K1 cells with two mammalian expression vectors that harbored human CRTH2 and G-alpha16 cDNAs, respectively, using FuGene® 6 transfection reagent (from Roche). Stable clones expressing CRTH2 were selected by staining each clone with BM16 (BD Pharmingen™ from BD Biosciences, a division of Becton, Dickinson and Company), which is a rat monoclonal antibody to human CRTH2. The cells were maintained as monolayer cultures in Ham's F-12 medium containing 10% fetal bovine serum, 100 units/mL penicillin, 100 μg/mL streptomycin, 2 mM glutamine, 0.5 mg/mL G418 (geneticin) for CRTH2, and 0.2 mg/mL hygromycin-B (for G-alpha 16). For whole cell receptor binding assay, the monolayer cells were rinsed once with PBS (phosphate buffered saline), dissociated using ethylenediaminetetraacetate (Versene™ EDTA from Lonza Inc.), and suspended in PBS containing 10 mM MgCl2 and 0.06% BSA (bovine serum albumin) at 1.5×10^6 cells/mL.
The binding reactions (0.2 mL) were performed in 96-well plates at room temperature in PBS containing 1.5×10^5 cells, 10 mM MgCl2, 0.06% BSA, 20 nM [^3H]ramatroban, and test compound at various concentrations. After 1 hour of binding reactions, the cells were harvested on GF™/B filter microplates (microtiter plates with embedded glass fiber from Perkin Elmer, Inc.) and washed 5 times with PBS using a Filtermate™ Harvester (a cell harvester that harvests and washes cells from microplates from PerkinElmer, Inc.). The radioactivities bound to the cells were determined using a microplate scintillation counter (TopCount® NXT, from PerkinElmer, Inc.) after adding 50 μL of Microscint™ 20 scintillation fluid (from PerkinElmer, Inc.) to each well of the filter plates. The radioactivity from non-specific binding was determined by replacing compound with 10 μM of 15(R)-15-methyl PGD2 (from Cayman Chemical Company) in the reaction mixtures. The radioactivity bound to the cells in the absence of compound (total binding) was determined by replacing compound with 0.25% of DMSO (dimethyl sulfoxide) in the reaction mixture. Specific binding data were obtained by subtracting the radioactivity of non-specific binding from each binding data.
The IC50 value is defined as the concentration of the tested compound that is required for 50% inhibition of total specific binding. In order to calculate the IC50 value, the percent inhibition data were determined for 7 concentrations for each compound. The percent inhibition for a compound at each concentration was calculated according to the following formula, [1-(specific binding in the presence of compound)/(total specific binding)]×100. The IC50 value was then obtained by fitting the percent inhibition data to a sigmoidal dose-response (4 parameter logistic) model in the XLfit® software Excel add-in program [from ID Business Solutions Ltd., model 205, where F(x)=(A+(B−A)/(1+((C/×)^D)))].
For `Cc1c(CC(=O)O)cc2ccc(F)cc2c1Cc1ccc(-c2cncnc2)cc1` [Example 12-2, [6-Fluoro-3-methyl-4-(4-pyrimidin-5-yl-benzyl)-naphthalen-2-yl]-acetic acid], the IC50 – broadly, the concentration at which inhibition is half-maximal – turned out to be 10.2 nM. In turn, `CCS(=O)(=O)c1ccc(Cc2c(C)c(CC(=O)O)cc3ccc(F)cc23)cc1` [Example 13-1, [4-(4-Ethanesulfonyl-benzyl)-6-fluoro-3-methyl-naphthalen-2-yl]-acetic acid] yielded a 50% inhibitory concentration (IC50) of 3.1 nM. Molecule `Cc1c(CC(=O)O)cc2ccc(F)cc2c1Cc1ccccc1S(=O)(=O)c1ccccc1` [Example 14-1] returned a half-maximal inhibitory concentration (IC50) of 5.4 nM.

As to `Cc1ccc(Cc2c(C)c(CC(=O)O)cc3ccc(F)cc23)cc1` [Example 15-1, [6-Fluoro-3-methyl-4-(4-methyl-benzyl)-naphthalen-2-yl]-acetic acid], the IC50 was 60.1 nM. Then `Cc1c(CC(=O)O)cc2ccc(F)cc2c1Cc1cccc(Cl)c1` [Example 15-2, [4-(3-Chloro-benzyl)-6-fluoro-3-methyl-naphthalen-2-yl]-acetic acid], with 83.8 nM.

The molecule `Cc1c(CC(=O)O)cc2ccc(F)cc2c1Cc1ccc(F)cc1` [Example 15-3, [6-Fluoro-4-(4-fluoro-benzyl)-3-methyl-naphthalen-2-yl]-acetic acid] came in with an IC50 of 32.8 nM. Then `Cc1c(CC(=O)O)cc2ccc(F)cc2c1Cc1ccc(OC(F)(F)F)cc1` [Example 15-4, [6-Fluoro-3-methyl-4-(4-trifluoromethoxy-benzyl)-naphthalen-2-yl]-acetic acid], with 79.3 nM; and `COC(=O)c1cccc(Cc2c(C)c(CC(=O)O)cc3ccc(F)cc23)c1` [Example 15-5, 3-(3-Carboxymethyl-7-fluoro-2-methyl-naphthalen-1-ylmethyl)-benzoic acid methyl ester], with 27.6 nM; and `CS(=O)(=O)c1ccc(C(O)c2cc(CC(=O)O)cc3ccc(F)cc23)c(Cl)c1` (stereo not shown) [Example 16-1, {4-[(2-Chloro-4-methanesulfonyl-phenyl)-hydroxy-methyl]-6-fluoro-naphthalen-2-yl}-acetic acid], with 16.1 nM. The molecule `CS(=O)(=O)c1ccc(C(O)c2cc(CC(=O)O)cc3ccc(Cl)cc23)cc1` (stereo not shown) [Example 16-3, {6-Chloro-4-[hydroxy-(4-methanesulfonyl-phenyl)-methyl]-naphthalen-2-yl}-acetic acid] showed an IC50 of 15.9 nM.

On to `Cc1cc(S(C)(=O)=O)ccc1C(O)c1cc(CC(=O)O)cc2ccc(F)cc12` (stereo not shown) [Example 16-4, {6-Fluoro-4-[hydroxy-(4-methanesulfonyl-2-methyl-phenyl)-methyl]-naphthalen-2-yl}-acetic acid], for which the 50% inhibitory concentration (IC50) came to 31.9 nM. In turn, `CS(=O)(=O)c1ccc(C(O)c2cc(CC(=O)O)cc3ccc(F)cc23)cc1` (stereo not shown) [Example 16-5, {6-Fluoro-4-[hydroxy-(4-methanesulfonyl-phenyl)-methyl]-naphthalen-2-yl}-acetic acid] displayed an IC50 of 8 nM. `CS(=O)(=O)c1ccc(C(O)c2cc(CC(=O)O)cc3ccccc23)cc1` (stereo not shown) [Example 16-6, {4-[Hydroxy-(4-methanesulfonyl-phenyl)-methyl]-naphthalen-2-yl}-acetic acid] gave an IC50 of 35.2 nM.

`CCS(=O)(=O)c1ccc(C(O)c2cc(CC(=O)O)cc3ccc(F)cc23)cc1` (stereo not shown) [Example 16-7, {4-[(4-Ethanesulfonyl-phenyl)-hydroxy-methyl]-6-fluoro-naphthalen-2-yl}-acetic acid] registered an IC50 of 17.4 nM.

On to `CCS(=O)(=O)c1ccc(C(O)c2cc(CC(=O)O)cc3ccc(F)cc23)c(C)c1` (stereo not shown) [Example 16-8, {4-[(4-Ethanesulfonyl-2-methyl-phenyl)-hydroxy-methyl]-6-fluoro-naphthalen-2-yl}-acetic acid], for which the 50% inhibitory concentration (IC50) amounted to 18.9 nM.

As to `CS(=O)(=O)c1ccc(C(F)(F)c2cc(CC(=O)O)cc3ccc(F)cc23)c(Cl)c1` [Example 17-1, {4-[(2-Chloro-4-methanesulfonyl-phenyl)-difluoro-methyl]-6-fluoro-naphthalen-2-yl}-acetic acid], the half-maximal inhibitory concentration (IC50) came to 5.7 nM. For `CS(=O)(=O)c1ccc(C(F)(F)c2cc(CC(=O)O)cc3ccc(F)cc23)cc1` [Example 17-2, {4-[Difluoro-(4-methanesulfonyl-phenyl)-methyl]-6-fluoro-naphthalen-2-yl}-acetic acid] the value was 3.1 nM. For `CCS(=O)(=O)c1ccc(C(F)(F)c2cc(CC(=O)O)cc3ccc(F)cc23)cc1` [Example 17-3, {4-[(4-Ethanesulfonyl-phenyl)-difluoro-methyl]-6-fluoro-naphthalen-2-yl}-acetic acid] the value was 3.9 nM; for `COC(c1ccc(S(C)(=O)=O)cc1)c1cc(CC(=O)O)cc2ccc(F)cc12` (stereo not shown) [Example 18-1, {6-Fluoro-4-[(4-methanesulfonyl-phenyl)-methoxy-methyl]-naphthalen-2-yl}-acetic acid], 40.4 nM; for `Cc1c(CC(=O)O)cc2ccc(F)cc2c1C(O)c1ccc(S(C)(=O)=O)cc1` (stereo not shown) [Example 19-1, {6-Fluoro-4-[hydroxy-(4-methanesulfonyl-phenyl)-methyl]-3-methyl-naphthalen-2-yl}-acetic acid], 11.8 nM. Then `O=C(O)Cc1cc(C(O)c2ccc(S(=O)(=O)N3CCOCC3)cc2)c2cc(F)ccc2c1` (stereo not shown) [Example 19-2, (6-Fluoro-4-{hydroxy-[4-(morpholine-4-sulfonyl)-phenyl]-methyl}-naphthalen-2-yl)-acetic acid], with 9.5 nM.

`CNS(=O)(=O)c1ccc(C(O)c2cc(CC(=O)O)cc3ccc(F)cc23)cc1` (stereo not shown) [Example 20-1, {6-Fluoro-4-[hydroxy-(4-methylsulfamoyl-phenyl)-methyl]-naphthalen-2-yl}-acetic acid] yielded a 50% inhibitory concentration (IC50) of 22.1 nM.
